Assay results: US20230390315A1, “COMPOSITIONS AND METHODS FOR TREATING ISCHEMIC CONDITIONS” (The Regents of the University of California, priority 2020, published 2023)

Experiments:
[1] = tested on: αv integrin, Neuropilin-1, VE-cadherin and bFGFR1; assay: Protein mass of other N-glycosylated proteins in BCEC; assay type: cell-based, bovine
Experimental: Cells were allowed to reach 80% confluency in 12-well plates. […] At various time points, plates were taken out of the incubator and kept on ice. Cell monolayers were first washed once with ice-cold PBS before lysis with 250 μl of Pierce RIPA buffer (ThermoFisher Scientific, Rockford, IL) or use 50 mM Tris-HCl (pH 7.6), 150 mM NaCl, 10% Glycerol, 1% NP-40 containing protease/Phosphatase inhibitor cocktail (100×) (Cell signaling, #5872). Lysates were collected and mixed with 4×Bolt LDS Sample Buffer (Novex, Carlsbad, CA) in the presence of Halt protease inhibitors and phosphatase inhibitor cocktail (ThermoFisher scientific, #NP0007). The samples were subjected to SDS-PAGE (Bolt 4-12% Bis-Tris Plus, Invitrogen) using Bolt MES SDS running buffer or NuPAGE 3-8% Tris-Acetate gel using Tris-Acetate SDS running buffer (Novex). HUVECs (passage 6-8) were plated in EBM-2 basal medium (Lonza) with 0.2% FBS. […] Equal amounts of protein lysates were analyzed by SDS-PAGE and blotted with the indicated antibodies. Proteins were transferred using Tris-Glycine buffer with 20% Methanol (Proteonomics grade) (Apex BioResearch Products). Membranes were first incubated with 5% milk in TBST, pH 7.6 (TEKnova, Hollister, CA), followed by blotting with primary and secondary antibodies. […]

[2] = tested on: ERK, AKT, mTOR, CREB, ACC and eNOS; assay: Western blot of signal transduction pathways in BCECs; assay type: cell-based, bovine
Experimental: (§1) Cells were allowed to reach ˜80% confluency in 12-well plates. […] At various time points, plates were taken out of the incubator and kept on ice. Cell monolayers were first washed once with ice-cold PBS before lysis with 250 μl of Pierce RIPA buffer (ThermoFisher Scientific, Rockford, IL) or use 50 mM Tris-HCl (pH 7.6), 150 mM NaCl, 10% Glycerol, 1% NP-40 containing protease/Phosphatase inhibitor cocktail (100×) (Cell signaling, #5872). Lysates were collected and mixed with 4×Bolt LDS Sample Buffer (Novex, Carlsbad, CA) in the presence of Halt protease inhibitors and phosphatase inhibitor cocktail (ThermoFisher scientific, #NP0007). The samples were subjected to SDS-PAGE (Bolt 4-12% Bis-Tris Plus, Invitrogen) using Bolt MES SDS running buffer or NuPAGE 3-8% Tris-Acetate gel using Tris-Acetate SDS running buffer (Novex). HUVECs (passage 6-8) were plated in EBM-2 basal medium (Lonza) with 0.2% FBS. […] Equal amounts of protein lysates were analyzed by SDS-PAGE and blotted with the indicated antibodies. Proteins were transferred using Tris-Glycine buffer with 20% Methanol (Proteonomics grade) (Apex BioResearch Products). Membranes were first incubated with 5% milk in TBST, pH 7.6 (TEKnova, Hollister, CA), followed by blotting with primary and secondary antibodies. ECL anti-rabbit IgG, horseradish peroxidase linked whole antibody from donkey or sheep anti-mouse were obtained from GE Healthcare (UK limited). SuperSignal West Dura Extended Duration substrate was from ThermoFisher Scientific. In some cases, the same PVDF membranes were stripped by 8-min incubation in the Restore Plus Western Blot Stripping Buffer (ThermoFisher Scientific) to show total specific protein expression, followed by second stripping for β-actin expression.

JNK/c-Jun = assay: Western blot of JNK pathway activation in BCECs; assay type: cell-based, bovine; conditions: media without growth factors
Experimental: as §1, with “80%” for “˜80%”

[3] = tested on: bovine choroidal microvascular endothelial cells (BCEC); assay: BCEC proliferation assay; assay type: cell-based
Experimental: Proliferation assays with BCECs and BRECs were performed. Log-phase growing BCECs or BRECs (passage <10) were trypsinized, re-suspended and seeded in 96-well plates (no coating) in low-glucose DMEM supplemented with 10% bovine calf serum, 2 mM glutamine, and antibiotics (growth medium), at a density of 1200-1500 cells per well in 200 μl volume. All reagents were added at the indicated final concentrations. […] Fluorescence was measured at 530 nm excitation wavelength and 590 nm emission wavelength. The experiments were repeated at least three times. […] On each 96-well plate, untreated and VEGF-treated (10/ng/ml) wells were included to monitor plate-to-plate variations. 20% methanol or 0.05% DMSO served as negative controls. 0.05% DMSO served as negative controls when Cas was tested in these cells. Human […] and human adult […] were split into Gelatin-coated 96 wells (2000 cells per well) in low glucose DMEM containing 10% FBS. 1200 cells/well was set up for proliferation assay in low glucose media containing FBS. […] HUVEC (p7-10) were grown on gelatin-coated plate until it reached 70-80% confluency. On the day of the assay, cells were dissociated with 0.05% trypsin, which was neutralized with 0.5% FBS-containing EBM. Cells were briefly spun and then re-suspended in 0.5% FBS-media. Cells were counted and plated in 96-well, 1000 cells/well. Triplicate wells were used for each treatment. Data were collected at day 3, and then cells were fixed in 4% paraformaldehyde for 15 min before adding crystal violet. Cell-covered areas were quantified after taking pictures by Image J software.

Row | Structure (SMILES) | protein mass of other N-glycosylated receptors/adhesion molecules [1] | activation of ERK, AKT and CREB with both ManN and VEGF compared to ManN or VEGF alone [2] | activation of ERK, AKT, mTOR and CREB ([2]; 40 uM) | activation of eNOS and ACC ([2]; 40 uM) | time to activation of eNOS and ACC ([2]; 40 uM) [min] | time to stimulation of ERK, AKT and CREB after adding ManN ([2]; 40 uM) [min] | activation of JNK pathway (JNK and downstream c-Jun) (JNK/c-Jun) | dose range with significant stimulatory effects [3] [µM] | additivity with VEGF in promoting BCEC proliferation ([3]; 5 ng/ml VEGF) | additivity with bFGF in promoting BCEC proliferation ([3]; 20 ng/ml bFGF) | fold increase in fluorescence units upon AlamarBlue addition ([3]; 50 uM ManN and 5 ng/ml VEGF, compared to VEGF alone) | maximal fold increase in EC-covered surface ([3]; ManN at 50 uM alone, crystal violet, FIG. 1A) [fold] | dependence of VEGFR2 mass decrease and BCEC proliferation stimulation on VEGFR2 signaling ([3]; experiments with VEGFR2 inhibitor axitinib) | additivity between ManN and VEGF in glucose-free media ([3]; glucose-free media) | concentration with significant cytotoxicity ([3]; glucose-free media, even in the presence of VEGF) [µM] | dose-response of effects on BCEC proliferation ([3]; with or without VEGF) | activation of ERK and AKT ([2]; 40 uM, BCECs) | BCEC proliferation with N-glycosylation inhibitors ([3]; absence or presence of 5 ng/ml VEGF)
1 | N[C@H](C=O)[C@@H](O)[C@H](O)[C@H](O)CO [ManN, 2-Amino-2-deoxy-D-mannose] | affected as well | enhancement in activation | activated | significantly activated | 10 to 30 | 10 to 30 | significantly activated | 5 to 500 | additive with VEGF | Additive effects | 2.5-3 fold | ~6.5 | not dependent on VEGFR2 signaling | abolished | 4 | bell-shaped dose-response curve, with inhibition at higher concentrations |  | 
2 | O=C1N[C@@H]2[C@@H](O)[C@@H](O)[C@H](O)[C@@H](CO)N2C1=O [Kif, Kifunensine, reference compound] |  |  |  |  |  |  | able to activate the JNK pathway |  |  |  |  |  |  |  |  |  | significantly activate | stimulated in a dose-dependent fashion
